From patent US7091202B2, “4-arylspirocycloalkyl-2-aminopyrimidine carboxamide KCNQ potassium channel modulators” (Bristol-Myers Squibb Company, priority 2004, dated 2006)

Target: T1, hQ23 (HEK-293 cell line stably transfected with one of the members of the KCNQ family) (Homo sapiens, UniProt O43525+O43526)
T1 construct: expressed in transfected cells; host or cells: HEK-293, stably transfected
Experiment: Thallium flux assay for KCNQ channel blockers (FLIPR, BTC dye)
Format: cell-based
Settings: Table 2; thallium flux, HEK-293
Procedure: Thallium Flux Assay for KCNQ channel blockers. Approximately 20,000 cells/well of an HEK-293 cell line stably transfected with one of the members of the KCNQ family were plated into clear-bottom, black-walled, poly-D-lysine coated, 384 well assay plates in 20 μl/well of low chloride plating medium. Low chloride plating medium was composed of the following: sodium gluconate, 109 mM; potassium gluconate, 5.4 mM; hemi-calcium gluconate, 3.6 mM; magnesium sulfate, 0.8 mM; sodium bicarbonate, 26.2 mM; sodium phosphate monobasic, 1.2 mM; glutamine, 2 mM; glucose, 5 mM; HEPES (pH 7.3) 10 mM, 10× concentration of vitamins (Gibco/LifeTechnologies catalog #11120-052) and 1× concentration of amino acids (Gibco/LifeTechnologies catalog #11130-051).
Following overnight incubation in a 5% CO2 incubator at 37° C., the cells in the plates were loaded with 20 μl/well of a dye loading solution containing the acetomethoxy ester of the thallium-sensitive fluorescent dye BTC, BTC-AM (2 μM) and pluronic acid (0.02% w/v) in chloride free assay buffer. Chloride free assay buffer was composed of the following: sodium gluconate, 140 mM; potassium gluconate, 2.5 mM; hemi-calcium gluconate, 6 mM; hemi-magnesium gluconate, 2 mM; glucose, 5 mM; HEPES (pH 7.3), 10 mM.
Following incubation in the dye loading solution for from 45–90 min at room temperature, the dye loading solution was removed by aspiration and replaced with 40 μl/well of chloride free assay buffer.
Prior to addition to cell plates, test compound and standard compounds were dissolved in DMSO to 3 mM concentration. Compounds were then diluted from the 3 mM stock to 100-fold over the final assay concentration in DMSO. Finally, compounds in DMSO were diluted from 100-fold over the final assay concentration to 5-fold over the final assay concentration in chloride free assay buffer.
Ten μl/well of compounds at 5-fold over the final assay concentration were then added to the cell plates. This represents a 1:5 dilution, yielding the final test concentration. The wells used for test compounds were A1–P20. Wells A21–P22 contained a standard ‘blocker’ and a fully efficacious concentration (positive control). Wells A23–P24 contained chloride free assay buffer containing 1% DMSO (negative control).
Following addition of test compounds, the plates were loaded onto the Molecular Devices FLIPR. The 488 nm line of the argon laser was used to excite the BTC and the emission filter was a 540(+/−30) nm. Images were collected at 1 Hz. Ten seconds of baseline were collected and then the FLIPR was used to add 13 μl/well of a stimulus buffer composed of Tl2SO4, 25 mM; sodium gluconate, 30 mM; potassium sulfate, 50 mM; hemi-calcium gluconate, 6 mM; hemi-magnesium gluconate, 2 mM; glucose, 5 mM; HEPES (pH 7.3), 10 mM in chloride free assay buffer. Images were collected for an additional 60 seconds.
For data analysis, the amplitude of the average of the negative controls was subtracted from all wells. The amplitudes of the test compounds were then compared to the value of four standard deviations of the negative control wells. The lowest concentration of a test compound sufficient to generate a signal amplitude greater than or equal to four standard deviations from the amplitude of the negative controls was defined as the minimal active concentration.
For generating IC50 values, compounds were serially diluted in 1:3 volume increments to produce a 10 point concentration series. IC50 values were calculated by fitting the resulting amplitudes to a single-site logistic equation. IC50 was defined as the concentration of test compound required to yield 50% of the response of the positive control.

T1 sequence (O43526 whole entry): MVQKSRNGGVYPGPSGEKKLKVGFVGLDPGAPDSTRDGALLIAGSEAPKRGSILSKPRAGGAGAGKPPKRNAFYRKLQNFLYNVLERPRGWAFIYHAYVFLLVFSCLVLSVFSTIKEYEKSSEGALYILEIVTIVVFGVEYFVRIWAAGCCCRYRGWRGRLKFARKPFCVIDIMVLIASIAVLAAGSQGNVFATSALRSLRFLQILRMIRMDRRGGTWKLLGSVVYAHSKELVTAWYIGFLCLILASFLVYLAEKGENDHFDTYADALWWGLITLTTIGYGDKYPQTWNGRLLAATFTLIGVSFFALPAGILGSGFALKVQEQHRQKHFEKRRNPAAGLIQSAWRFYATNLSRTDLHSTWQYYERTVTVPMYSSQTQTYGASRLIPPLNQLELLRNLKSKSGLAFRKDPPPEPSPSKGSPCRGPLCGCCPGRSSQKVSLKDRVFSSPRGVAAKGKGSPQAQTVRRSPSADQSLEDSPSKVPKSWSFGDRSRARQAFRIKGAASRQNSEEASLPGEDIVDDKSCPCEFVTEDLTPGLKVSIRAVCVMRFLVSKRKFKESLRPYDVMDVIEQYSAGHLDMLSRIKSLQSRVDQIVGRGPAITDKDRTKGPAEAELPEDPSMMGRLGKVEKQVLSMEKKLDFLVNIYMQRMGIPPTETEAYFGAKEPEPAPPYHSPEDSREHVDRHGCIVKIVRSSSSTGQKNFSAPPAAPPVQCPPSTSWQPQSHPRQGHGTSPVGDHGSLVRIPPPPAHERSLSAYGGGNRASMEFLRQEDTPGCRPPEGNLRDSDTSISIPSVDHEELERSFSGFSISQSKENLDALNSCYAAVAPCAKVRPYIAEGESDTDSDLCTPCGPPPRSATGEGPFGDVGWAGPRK
T1 sequence (O43525 whole entry): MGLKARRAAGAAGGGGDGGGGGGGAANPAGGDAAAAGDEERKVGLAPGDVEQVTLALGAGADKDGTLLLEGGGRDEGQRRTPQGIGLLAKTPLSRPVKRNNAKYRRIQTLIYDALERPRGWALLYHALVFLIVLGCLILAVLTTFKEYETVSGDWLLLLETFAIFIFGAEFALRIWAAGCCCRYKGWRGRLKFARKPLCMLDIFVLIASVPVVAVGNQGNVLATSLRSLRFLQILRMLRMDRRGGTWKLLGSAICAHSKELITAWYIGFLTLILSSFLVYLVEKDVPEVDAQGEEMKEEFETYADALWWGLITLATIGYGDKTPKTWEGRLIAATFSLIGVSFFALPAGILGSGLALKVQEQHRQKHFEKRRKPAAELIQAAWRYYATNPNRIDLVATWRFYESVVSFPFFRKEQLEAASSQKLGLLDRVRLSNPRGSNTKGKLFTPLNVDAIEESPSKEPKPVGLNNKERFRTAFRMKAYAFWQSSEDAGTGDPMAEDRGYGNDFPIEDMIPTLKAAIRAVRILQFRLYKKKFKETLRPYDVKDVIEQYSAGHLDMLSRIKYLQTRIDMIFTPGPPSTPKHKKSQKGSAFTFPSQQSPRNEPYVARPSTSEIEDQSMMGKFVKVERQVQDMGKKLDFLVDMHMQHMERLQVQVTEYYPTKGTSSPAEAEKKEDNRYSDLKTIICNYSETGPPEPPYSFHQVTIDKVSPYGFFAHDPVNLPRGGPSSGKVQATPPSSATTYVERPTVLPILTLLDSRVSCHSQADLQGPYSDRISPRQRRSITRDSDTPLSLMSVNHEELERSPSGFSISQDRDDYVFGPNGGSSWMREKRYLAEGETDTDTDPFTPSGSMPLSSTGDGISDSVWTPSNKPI

Row | SMILES | EC50
1 | CCN(Cc1ccccc1)C(=O)c1cnc(N2CCCC(C)C2)nc1C1(c2ccccc2)CC1 (stereo not shown) [Example 30, 5-pyrimidinecarboxamide, N-ethyl-2-(3-methyl-1-piperidinyl)-4-(1-phenylcyclopropyl)-N-(phenylmethyl)-] | 634 nM

Same assay, conditions: Table 3; thallium flux, HEK-293

Row | SMILES | EC50
2 | CCC(C)Nc1ncc(C(=O)NCc2ccc3c(c2)OCO3)c(C2(c3ccc(Cl)cc3)CCC2)n1 (stereo not shown) [Example 59, 5-pyrimidinecarboxamide, N-(1,3-benzodioxol-5-ylmethyl)-4-[1-(4-chlorophenyl)cyclobutyl]-2-[(1-methylpropyl)amino]-] | 405 nM
3 | CCN(CC)C(=O)c1cnc(NCCN(C)C)nc1C1(c2ccc(Cl)cc2)CCC1 [Example 53, 5-pyrimidinecarboxamide, 4-[1-(4-chlorophenyl)cyclobutyl]-2-[[2-(dimethylamino)ethyl]amino]-N,N-diethyl-] | 558 nM
4 | O=C(NCc1cccc2ccccc12)c1cnc(N2CCCC2)nc1C1(c2ccc(Cl)cc2)CCC1 [Example 61, 5-pyrimidinecarboxamide, 4-[1-(4-chlorophenyl)cyclobutyl]-N-(1-naphthalenylmethyl)-2-(1-pyrrolidinyl)-] | 79 nM

Same assay, conditions: hQ23 cells, thallium flux

Row | SMILES | EC50
5 | CC1CCN(c2ncc(C(=O)N3CCCC(C)C3)c(C3(c4ccc(F)cc4)CCCC3)n2)CC1 (stereo not shown) [Example 218, piperidine, 1-[[4-[1-(4-fluorophenyl)cyclopentyl]-2-(4-methyl-1-piperidinyl)-5-pyrimidinyl]carbonyl]-3-methyl-] | 866 nM
6 | CCC(C)Nc1ncc(C(=O)N(CC)C2CCCCC2)c(C2(c3ccc(Cl)cc3)CCCC2)n1 (stereo not shown) [Example 143, 5-pyrimidinecarboxamide, 4-[1-(4-chlorophenyl)cyclopentyl]-N-cyclohexyl-N-ethyl-2-[(1-methylpropyl)amino]-] | 880 nM
7 | CC1CCN(c2ncc(C(=O)NCc3cc(F)cc(C(F)(F)F)c3)c(C3(c4ccc(Cl)cc4)CCCC3)n2)CC1 [Example 193, 5-pyrimidinecarboxamide, 4-[1-(4-chlorophenyl)cyclopentyl]-N-[[3-fluoro-5-(trifluoromethyl)phenyl]methyl]-2-(4-methyl-1-piperidinyl)-] | 12 nM
8 | CCC(C)Nc1ncc(C(=O)NCc2cccc3ccccc23)c(C2(c3ccc(Cl)cc3)CCCC2)n1 (stereo not shown) [Example 171, 5-pyrimidinecarboxamide, 4-[1-(4-chlorophenyl)cyclopentyl]-2-[(1-methylpropyl)amino]-N-(1-naphthalenylmethyl)-] | 158 nM
9 | O=C(NCc1cccc2ccccc12)c1cnc(NC2CC2)nc1C1(c2ccc(Cl)cc2)CCCC1 [Example 165, 5-pyrimidinecarboxamide, 4-[1-(4-chlorophenyl)cyclopentyl]-2-(cyclopropylamino)-N-(1-naphthalenylmethyl)-] | 630 nM
10 | CC1CCCN(c2ncc(C(=O)NCc3cc(F)cc(C(F)(F)F)c3)c(C3(c4ccc(Cl)cc4)CCCC3)n2)C1 (stereo not shown) [Example 192, 5-pyrimidinecarboxamide, 4-[1-(4-chlorophenyl)cyclopentyl]-N-[[3-fluoro-5-(trifluoromethyl)phenyl]methyl]-2-(3-methyl-1-piperidinyl)-] | 10 nM
11 | CCN(C(=O)c1cnc(N2CCCC(C)C2)nc1C1(c2ccc(F)cc2)CCCC1)C1CCCCC1 (stereo not shown) [Example 214, 5-pyrimidinecarboxamide, N-cyclohexyl-N-ethyl-4-[1-(4-fluorophenyl)cyclopentyl]-2-(3-methyl-1-piperidinyl)-] | 575 nM
12 | CCC(C)Nc1ncc(C(=O)NCc2ccc3c(c2)OCO3)c(C2(c3ccc(Cl)cc3)CCCC2)n1 (stereo not shown) [Example 155, 5-pyrimidinecarboxamide, N-(1,3-benzodioxol-5-ylmethyl)-4-[1-(4-chlorophenyl)cyclopentyl]-2-[(1-methylpropyl)amino]-] | 337 nM
13 | CC1CCN(c2ncc(C(=O)NCc3ccc4c(c3)OCO4)c(C3(c4ccc(Cl)cc4)CCCC3)n2)CC1 [Example 154, 5-pyrimidinecarboxamide, N-(1,3-benzodioxol-5-ylmethyl)-4-[1-(4-chlorophenyl)cyclopentyl]-2-(4-methyl-1-piperidinyl)-] | 10 nM
14 | O=C(NCc1cccc2ccccc12)c1cnc(NC2CC2)nc1C1(c2ccccc2)CCCC1 [Example 101, 5-pyrimidinecarboxamide, 2-(cyclopropylamino)-N-(1-naphthalenylmethyl)-4-(1-phenylcyclopentyl)-] | 669 nM
15 | CCC(C)Nc1ncc(C(=O)N(CC)C2CCCCC2)c(C2(c3ccc(F)cc3)CCCC2)n1 (stereo not shown) [Example 216, 5-pyrimidinecarboxamide, N-cyclohexyl-N-ethyl-4-[1-(4-fluorophenyl)cyclopentyl]-2-[(1-methylpropyl)amino]-] | 821 nM
16 | CC1CCC(Nc2ncc(C(=O)NCc3ccc(Cl)c(Cl)c3)c(C3(c4ccccc4)CCCC3)n2)CC1 (stereo not shown) [Example 106, 5-pyrimidinecarboxamide, N-[(3,4-dichlorophenyl)methyl]-2-[(4-methylcyclohexyl)amino]-4-(1-phenylcyclopentyl)-] | 130 nM
17 | CC1CCN(c2ncc(C(=O)N3CCc4ccccc4C3)c(C3(c4ccc(F)cc4)CCCC3)n2)CC1 [Example 212, isoquinoline, 2-[[4-[1-(4-fluorophenyl)cyclopentyl]-2-(4-methyl-1-piperidinyl)-5-pyrimidinyl]carbonyl]-1,2,3,4-tetrahydro-] | 237 nM
18 | CN(CCc1ccccc1)C(=O)c1cnc(NC2CCCC2)nc1C1(c2ccc(Cl)cc2)CCCC1 [Example 148, 5-pyrimidinecarboxamide, 4-[1-(4-chlorophenyl)cyclopentyl]-2-(cyclopentylamino)-N-methyl-N-(2-phenylethyl)-] | 597 nM
19 | CC1CCCN(c2ncc(C(=O)NCc3ccc(F)cc3F)c(C3(c4ccc(Cl)cc4)CCCC3)n2)C1 (stereo not shown) [Example 187, 5-pyrimidinecarboxamide, 4-[1-(4-chlorophenyl)cyclopentyl]-N-[(2,4-difluorophenyl)methyl]-2-(3-methyl-1-piperidinyl)-] | 95 nM
20 | O=C(NCc1ccc2c(c1)OCO2)c1cnc(NC2CCCC2)nc1C1(c2ccc(Cl)cc2)CCCC1 [Example 156, 5-pyrimidinecarboxamide, N-(1,3-benzodioxol-5-ylmethyl)-4-[1-(4-chlorophenyl)cyclopentyl]-2-(cyclopentylamino)-] | 70 nM

Same assay, conditions: hQ23 cells, thallium flux assay

Row | SMILES | EC50
21 | CCC(C)Nc1ncc(C(=O)NCc2ccc(Cl)cc2Cl)c(C2(c3ccc(F)cc3)CCCC2)n1 (stereo not shown) [Example 265, 5-pyrimidinecarboxamide, N-[(2,4-dichlorophenyl)methyl]-4-[1-(4-fluorophenyl)cyclopentyl]-2-[(1-methylpropyl)amino]-] | 138 nM
22 | CN(C)CCNc1ncc(C(=O)NCc2ccc3c(c2)OCO3)c(C2(c3ccc(F)cc3)CCCC2)n1 [Example 239, 5-pyrimidinecarboxamide, N-(1,3-benzodioxol-5-ylmethyl)-2-[[2-(dimethylamino)ethyl]amino]-4-[1-(4-fluorophenyl)cyclopentyl]-] | 792 nM
23 | CC1CCC(Nc2ncc(C(=O)NCc3cccc4ccccc34)c(C3(c4ccc(F)cc4)CCCC3)n2)CC1 (stereo not shown) [Example 248, 5-pyrimidinecarboxamide, 4-[1-(4-fluorophenyl)cyclopentyl]-2-[(4-methylcyclohexyl)amino]-N-(1-naphthalenylmethyl)-] | 10 nM
24 | CC1CCN(c2ncc(C(=O)NCc3cc(F)cc(C(F)(F)F)c3)c(C3(c4ccc(F)cc4)CCCC3)n2)CC1 [Example 278, 5-pyrimidinecarboxamide, 4-[1-(4-fluorophenyl)cyclopentyl]-N-[[3-fluoro-5-(trifluoromethyl)phenyl]methyl]-2-(4-methyl-1-piperidinyl)-] | 10 nM
25 | O=C(NCc1ccc(Cl)cc1Cl)c1cnc(NC2CC2)nc1C1(c2ccc(F)cc2)CCCC1 [Example 259, 5-pyrimidinecarboxamide, 2-(cyclopropylamino)-N-[(2,4-dichlorophenyl)methyl]-4-[1-(4-fluorophenyl)cyclopentyl]-] | 869 nM
